Laboratory results published in article PMC2919388, “A Screening Pipeline for Antiparasitic Agents Targeting Cryptosporidium Inosine Monophosphate Dehydrogenase” (PLoS Neglected Tropical Diseases, 2010).
Like-named read-outs stand apart in the source and are kept apart here.

Assays:
wild-type T. gondii = experiment: Fluorescent T. gondii growth assay, wild-type strain; assay type: cell-based, Toxoplasma gondii
Description: (§1) Wild-type T. gondii and T. gondii-ΔHXGPRT parasites were transfected with plasmid ptubYFPYFsagCAT [37] which drives constitutive cytoplasmic expression of two copies of the yellow fluorescent protein. Similarly, plasmid pCTR2T [38] was transfected into T. gondii-CpIMPDH resulting in constitutive cytoplasmic expression of a tandem of the tomato variant of the red fluorescent protein [39]. Fluorescent parasites were selected and cloned by cell sorting using a MoFlo Legacy instrument (Beckman Coulter, Inc). Growth of fluorescent clones was monitored in 96 well plates as previously described. Briefly, fluorescence was read daily with a SpectraMax M22/M2e (Molecular Devices) plate reader (Ex 485, Em 530) for 6–7 days. For each of the three fluorescent T. gondii clones percent growth inhibition was calculated on a day within the exponential phase of growth for the purpose of determining an IC50 for each compound.
(§2) Supplementary file pntd.0000794.s002.tif: Figure S2 Obtaining an EC50 value for T. gondii growth. Fluorescent T. gondii parasites are seeded into 96-well plates and spiked with test compound. Fluorescence is measured daily with a SpectraMax M22/M2e (Molecular Devices) plate reader for 6–7 days. The fluorescence readings on a day during the exponential phase of the growth curve, for example day 4 in A, are used to calculated percent growth inhibition. These values are fitted using the 4 parameter model y = D+(A–D)/(1+(x/C)^B) where D is the minimum value, A is the maximum value, C is the EC50 and B is the Hill coefficient, using the SoftMax Pro v5 software, as illustrated in B. The absolute EC50 is recorded at the x intercept where y = 50. (0.33 MB TIF) Click here for additional data file.

T. gondii-CpIMPDH = experiment: Fluorescent T. gondii growth assay, CpIMPDH reporter strain; assay type: cell-based, Toxoplasma gondii; conditions: for Selectivity = EC50(T. gondii-wild-type)/EC50(T. gondii-CpIMPDH): Figure 5 Sel
Description: as §1
To facilitate screening of antiparasitic activity, we constructed a T. gondii reporter parasite that mirrors the Cryptosporidium purine metabolism. Figure 1 summarizes the main differences between the two parasites in this pathway. We started with a T. gondii knockout mutant that, like C. parvum, lacks the ability to salvage xanthine and guanine via HXGPRT (T. gondii-ΔHXGPRT [41]) and introduced the CpIMPDH gene under the control of a T. gondii promoter. Next the native T. gondii IMPDH gene was disrupted by replacing the entire coding sequence with a chloramphenicol acetyl transferase cassette using a new cosmid-based gene targeting approach. […] This manipulation created strain T. gondii-CpIMPDH-ΔHXGPRT-ΔTgIMPDH. Lastly, we introduced a fluorescent protein cassette and isolated stable transgenic parasites by cell sorting. The resulting strain is referred to as T. gondii-CpIMPDH. […] We similarly engineered fluorescent versions of wild-type T. gondii and T. gondii-ΔHXGPRT to serve as controls.
as §2

HCT-8 cells = experiment: Fluorescent HCT-8 host cell growth assay; assay type: cell-based, human; conditions: for activity at 25 µM: Homo sapiens, HCT-8, compound at 25 μM, relative to DMSO alone; for effect on host cell (HCT-8) growth: in words; for inhibition of HCT-8 cell growth: at 12.5 µM and 25 µM
Description: HCT-8 cells were transfected with plasmid pmaxGFP (Amaxa) using Lipofectamine (Invitrogen). Fluorescent lines were then selected and cloned using cell sorting. Confluent monolayers of pmaxGFP expressing cells were harvested from T75 flasks and passed through a 40 µm cell strainer. Cells were seeded at 4000 cells per well into black, optical quality, thin bottom, 96-well plates. All test compounds were diluted in DMSO as described. The fluorescence was read daily with a SpectraMax M22/M2e (Molecular Devices) plate reader (Ex 485, Em 530) for 6–7 days. Percent inhibition was calculated on a day within the exponential phase of growth.

C. parvum = experiment: High-content imaging C. parvum growth assay (FITC-VVL); assay type: cell-based, Cryptosporidium parvum; conditions: for EC50: Cryptosporidium parvum, HCT-8, 48 h, growth in HCT-8 cells, 48 hours; for potency relative to paromomycin: anticryptosporidial activity
Description: The human ileocecal adenocarcinoma epithelial cell line, HCT-8, was used to support C. parvum infection in vitro. HCT-8 cells were maintained in RPMI-1640 (Hyclone) supplemented with 10% FBS, 1 mM sodium pyruvate, 50 U/m penicillin, 50 µg/ml streptomycin, and amphotericin B. Cryptosporidium parvum oocysts were a kind gift from either Dr. Mead (Emory University) or Dr. Kissinger (University of Georgia). HCT-8 cells (2×10^5) were seeded into black, optical quality, thin bottom, 96-well plates (DB Falcon) to achieve a 70% confluent monolayer on the day of infection. To facilitate oocyst excystation, a procedure described by Gut et al., was followed. Briefly, oocysts were washed twice with 1 ml of PBS (pH 7.2), incubated for 10 minutes at 37°C in 1 ml 10 mM of HCl and then incubated for a further 10 minutes in 0.2 ml of 200 µM sodium taurocholate at 15°C [40]. This oocyst suspension was diluted directly with DMEM (Hyclone) supplemented with 2% FBS, 50 U/ml penicillin, 50 µg/ml streptomycin, amphotericin B and 0.2 mM L-glutamine (infection medium) to inoculate host cell monolayers at 5×10^5 oocysts per well. Host cell monolayers were incubated for 3 hours at 37°C prior to removal of unexcysted oocysts by aspiration and PBS wash. Infection medium was then added to the monolayers and infection was allowed to progress for 48 hours.
The VVL IFA was performed in a 96-well format. Following 48 hours of culture C. parvum infected HCT-8 cells were washed with PBS and fixed with 0.2 ml/well of 3% paraformaldehyde/PBS, permeabilized with 0.25% Triton-X-100/PBS and blocked with 4% BSA/PBS. 0.1 ml of fluorescein (FITC)-conjugated VVL (Vector Labs 0.5 µg/ml) in 1% BSA/PBS was applied to wells and incubated for 45 minutes. The plates were washed twice with 200 µl/well of PBS. In the first wash DAPI was included at 0.1 µg/ml. Finally 200 µl/well of PBS was added to the plates prior to storage at 4°C protected from light.
Confocal images were acquired using a BD Biosciences Bioimager P435. The instrument was programmed to automatically change position and focus, capture montage images of 9–16, 40× fields per well, and then compress and save the image files. Object finding algorithms were developed for the recognition of FITC-VVL labelled C. parvum parasites and DAPI labelled host cell nuclei using Attovision Software (BD Biosciences). Briefly, to identify FITC-VVL labelled parasites, the object finding algorithm included, a flat field correction, a polygon shape setting, a 3×3 rolling ball filter, manual pixel intensity thresholding (100 min – 4095 max), and minimum and maximum object size cut-offs of 5 pixels and 350 pixels respectively. The algorithm optimised for finding DAPI labelled host cell nuclei also included flat field correction and polygon shape setting, but applied a 25×25 rolling ball filter which is more suitable for larger objects, an automated pixel intensity threshold, minimum and maximum object size cut-offs of 200 pixels and 4000 pixels respectively, and a watershed step with an erosion factor of 8 to aid in the separation of adjacent densely packed nuclei. Note that the intensity and area size cut off exclude detection of the much smaller parasite nuclei (the human genome is three hundred times larger than the C. parvum genome).
The object finding analysis steps described above recorded the number and area of objects per montage image. The output files along with a plate map file were then passed to an automated analysis pipeline (Pipeline Pilot Software, Accelrys) to calculate the mean number of parasites, the ratio of parasite number to host cell nuclei number, the mean area of parasites and host cell nuclei by well, and the percentage growth by treatment as compared to the no drug control. These analyses were exported in graphical format for each plate and the numerical values tabulated in html format. […]

CpIMPDH = CpIMPDH (Cryptosporidium parvum, UniProt Q8T6T2); conditions: cited from earlier work
T. gondii-ΔHXGPRT = experiment: Fluorescent T. gondii growth assay, ΔHXGPRT strain; assay type: cell-based; conditions: Toxoplasma gondii, read-out: T. gondii model EC50 ΔHXGPRT, T. gondii-ΔHXGPRT
Description: as §1, §2

[1] = Toxoplasma gondii, wild-type T. gondii, no added xanthine, read-out: T. gondii model EC50 WT
[2] = wild-type T. gondii, no added xanthine, read-out: T. gondii model EC50 WT
[3] = read-out: CpIMPDH Inhibition IC50 - BSA
[4] = Toxoplasma gondii, read-out: T. gondii model EC50 CpIMPDH, T. gondii-CpIMPDH, absence of xanthine

Chain of CpIMPDH (Q8T6T2 whole entry): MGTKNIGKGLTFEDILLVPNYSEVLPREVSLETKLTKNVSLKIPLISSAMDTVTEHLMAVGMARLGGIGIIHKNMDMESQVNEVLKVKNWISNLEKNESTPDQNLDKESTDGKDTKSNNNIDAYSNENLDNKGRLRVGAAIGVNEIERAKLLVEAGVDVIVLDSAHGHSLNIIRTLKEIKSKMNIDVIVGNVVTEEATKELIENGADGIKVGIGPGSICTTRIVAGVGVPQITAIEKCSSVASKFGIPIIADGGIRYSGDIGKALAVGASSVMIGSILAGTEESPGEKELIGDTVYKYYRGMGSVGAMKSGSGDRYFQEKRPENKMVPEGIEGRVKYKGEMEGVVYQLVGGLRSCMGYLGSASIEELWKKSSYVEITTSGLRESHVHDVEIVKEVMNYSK

SMILES | EC50 (wild-type T. gondii; [1]) [µM] | EC50 (wild-type T. gondii; [2]) [µM] | Selectivity = EC50(T. gondii-wild-type)/EC50(T. gondii-CpIMPDH) (T. gondii-CpIMPDH) | EC50 (T. gondii-CpIMPDH; read-out: T. gondii model EC50 CpIMPDH, T. gondii-CpIMPDH, absence of xanthine) [µM] | activity at 25 µM (HCT-8 cells) [%] | effect on host cell (HCT-8) growth (HCT-8 cells) | EC50 (C. parvum) [µM] | IC50 (CpIMPDH; [3]) [µM] | EC50 (T. gondii-ΔHXGPRT) [µM] | EC50 (T. gondii-CpIMPDH; [4]) [µM] | IC50 (CpIMPDH; in the presence of BSA, values marked c, read-out: CpIMPDH Inhibition IC50 + BSA) [µM] | IC50 (CpIMPDH; without BSA, values marked c, read-out: CpIMPDH Inhibition IC50 - BSA) [µM] | selectivity for the T. gondii-CpIMPDH parasite over wild-type T. gondii (T. gondii-CpIMPDH) [fold] | inhibition of HCT-8 cell growth (HCT-8 cells) | IC50 (CpIMPDH; read-out: CpIMPDH Inhibition IC50 + BSA) [µM] | potency relative to paromomycin (C. parvum) [×] | EC50 (wild-type T. gondii; Toxoplasma gondii, media supplemented with xanthine (0.33 mM), read-out: EC50 wild-type T. gondii with xanthine) [µM] | CpIMPDH inhibition by MPA (CpIMPDH; at concentrations active against TgIMPDH)
CC(Oc1ccc(Cl)c2ccccc12)c1cn(-c2ccc(Cl)cc2)nn1 (centres unmarked) [Compound A82] | 5 ± 2 | ≤ 10 | 0.9 | ≤ 10 | 108 ± 2 | do not inhibit host cell growth | 6 to 13 | 0.09 ± 0.03 | – | – | – | – | – | – | – | – | – | –
CC(Oc1ccnc2ccccc12)c1cn(-c2ccc(Cl)cc2)nn1 (centres unmarked) [Compound A89] | 4.9 ± 0.9 | – | 14 | – | 43 ± 2 | – | < 13 | – | 6 ± 2 | 0.4 ± 0.2 | – | – | – | – | – | – | – | –
CC(Oc1ccnc2ccccc12)c1cn(-c2ccc(Cl)c(Cl)c2)nn1 (centres unmarked) [Compound A90] | 5 ± 3 | ≤ 10 | 1.5 | – | 77 ± 5 | do not inhibit host cell growth | 6 to 13 | – | – | – | – | – | – | – | – | – | – | –
CC(Oc1ccnc2ccccc12)c1cn(-c2ccc(C#N)c(Cl)c2)nn1 (centres unmarked) [Compound A92] | 9 ± 2 | – | 1.6 | – | 47 ± 1 | – | 3 to 6 | – | 8 ± 4 | 5 ± 1 | – | – | – | – | – | – | – | –
C[C@@H](Oc1cncc2ccccc12)c1cn(-c2ccc(Cl)cc2)nn1 [Compound A98] | 2.8 ± 0.1 | – | > 12 | – | 65 ± 7 | – | 3 to 6 | – | 2.3 ± 0.6 | < 0.2 | 0.03 ± 0.001 | 0.009 ± 0.001 | – | – | – | – | – | –
CC(Oc1cc[n+]([O-])c2ccccc12)c1cn(-c2ccc(Cl)cc2)nn1 (centres unmarked) [Compound A100] | > 25 | ≥ 20 | – | – | 44 ± 10 | – | 12 to 25 | 0.03 ± 0.01 | ≥ 25 | 0.5 | – | – | ≥ 36 | inhibit HCT-8 cell growth significantly | – | – | – | –
CC(Oc1cccc2c1ccc[n+]2[O-])c1cn(-c2ccc(Cl)cc2)nn1 (centres unmarked) [Compound A102] | 23 ± 3 | ≥ 20 | 76 | – | 62 | – | 12 to 25 | – | 20 ± 5 | 0.3 ± 0.1 | – | – | ≥ 36 | inhibit HCT-8 cell growth significantly | 0.06 ± 0.02 | – | – | –
CC(Oc1cc[n+]([O-])c2ccccc12)c1cn(-c2ccc(Cl)c(Cl)c2)nn1 (centres unmarked) [Compound A103] | 19 ± 4 | ≥ 20 | 36 | – | 33 ± 6 | – | < 0.8 | – | 17 ± 4 | 0.5 ± 0.4 | – | – | ≥ 36 | inhibit HCT-8 cell growth significantly | – | > 100 | – | –
C[C@@H](Oc1ccnc2ccccc12)c1cn(-c2ccc(Cl)c(Cl)c2)nn1 [Compound A105] | – | – | 2.9 | – | 81 ± 13 | do not inhibit host cell growth | 6 to 13 | – | – | – | – | – | – | – | – | – | – | –
C[C@H](Oc1ccnc2ccccc12)c1cn(-c2ccc(Cl)c(Cl)c2)nn1 [Compound A107] | 6 | – | 3.1 | – | 64 ± 16 | – | < 13 | – | 7 | 2.4 | – | – | – | – | – | – | – | –
C[C@H](Oc1ccnc2ccccc12)c1cn(-c2ccc(C#N)c(Cl)c2)nn1 [Compound A108] | 5 | – | 1.3 | – | 47 ± 14 | – | 12 to 25 | – | – | 3.9 | – | – | – | – | – | – | – | –
C[C@@H](Oc1cc[n+]([O-])c2ccccc12)c1cn(-c2ccc(Cl)cc2)nn1 [Compound A110] | 23 ± 2 | – | > 120 | – | 94 ± 12 | – | < 0.8 | – | > 25 | < 0.2 | – | – | ≥ 36 | – | – | > 100 | – | –
COc1c(C)c2c(c(O)c1C/C=C(\C)CCC(=O)O)C(=O)OC2 [MPA, mycophenolic acid, reference compound] | 2.6 | – | – | – | – | – | – | – | 0.29 | > 65 | – | – | – | – | – | – | ≥ 78 | not inhibited
CCCC(=O)[O-].[Na+] [sodium butyrate, reference compound] | – | – | – | – | – | did inhibit HCT-8 growth in a dose-dependent manner | – | – | – | – | – | – | – | – | – | – | – | –
